Literature values as cited in patent US20070275060A1, “Extended release solid pharmaceutical composition containing carbidopa and levodopa” (OSMOTICA COSTA RICA SOCIEDAD ANONIMA, priority 2005, published 2007).

Conditions: orally administered

time of peak concentrations: 30 to 120 min
Compound: N[C@@H](Cc1ccc(O)c(O)c1)C(=O)O [LD]
